Reference: paper PMC3612465 (International Journal of Alzheimer's Disease, 2013)
Read-outs that look alike come from different tables or passages of the source.

Legend:
[1] = tested on: HES-1, mATH1, KLF4 gene expression; assay: Notch pathway biomarker gene expression in jejunum (RT-PCR); assay type: in vivo, nontransgenic B6C3F1 mouse; details: nontransgenic mice
Text: The jejunum was harvested, rinsed, and flash frozen in liquid nitrogen until later analyses. RNA was isolated from tissues using the Trizol reagent (Molecular Research Center, Inc.) followed by purification over an RNAeasy column (Qiagen).
RNA was purified over an RNAeasy column.

Aβ40 [2] = assay: Acute Aβ lowering in nontransgenic B6C3F1 mice; assay type: in vivo, nontransgenic B6C3F1 mouse; details: 3 hr
Aβ40, Aβ42 [3] = tested on: Aβ40, Aβ42; set-up: species or system TgCRND8 mouse; details: mouse, in vivo, po, 100 mg/kg
Aβ40 [4] = details: rat, single oral dose 10-100 mg/kg, 3 hr
Aβ40, Aβ42 [5] = tested on: Aβ40, Aβ42; set-up: species or system TgCRND8 mouse; details: mouse, in vivo
Text: (§1) Plasma and cortex Aβ42 were quantified in select TgCRND8 studies using biotin-4G8 and S-tag G2-11 and 4G8 antibodies.

Aβ40, Aβ42 [6] = details: TgCRND8, single oral 30 mg/kg, 8 hr after dose
Text: as §1

Aβ40 [7] = assay: Subchronic (11 days q.d. or 6 days b.i.d.) Aβ lowering in nontransgenic mice; assay type: in vivo, nontransgenic B6C3F1 mouse
[8] = tested on: Aβ; Notch-related toxicity; set-up: method as in PMID 21190552; details: 7 days of b.i.d. dosing, cited from earlier work

Q: For O=C(OC1([C@H]2CCC[C@@H](c3cc(F)cc(F)c3)N2S(=O)(=O)c2ccc(Cl)cc2)CC1)N1CCN(CCO)CC1 (relative stereo) [SCH 697466, 1-[cis-1-[(4-chlorophenyl)sulfonyl]-6-(3,5-difluorophenyl)-2-piperidinyl]cyclopropyl 4-(2-hydroxyethyl)-1-piperazinecarboxylate], which “mATH1 expression in the jejunum” value ([1]; 100 mg/kg 6 days b.i.d., P < 0.04) is on record?
A: Its value is “increased expression”.

Q: What about the “HES-1 expression in the jejunum” value ([1]; 100 mg/kg, 11 days q.d. and 6 days b.i.d., P < 0.02) of the same compound?
A: Its value is “significant decreases”.

Q: What about the “KLF4 expression in the jejunum” value ([1]; 30 and 100 mg/kg 6 days b.i.d., P < 0.04) of the same compound?
A: The value was “increased expression”.

Q: And the “mATH1 and KLF expression in the jejunum” value ([1]; 11 day q.d. groups)?
A: The value was “unchanged”.

Q: And the “cortex Aβ lowering” value (Aβ40 [2]; single oral 100 mg/kg)?
A: The value was “Near complete lowering”.

Q: What about the “cortex Aβ lowering” value (Aβ40 [2]; single oral 10, 30 and 100 mg/kg, P < 0.005) of the same compound?
A: Its value is “significant lowering”.

Q: What about the “cortex Aβ40 reduction” value (Aβ40, Aβ42 [3]) of the same compound?
A: The value was 55%.

Q: What about the “cortex Aβ42 reduction” value (Aβ40, Aβ42 [3]) of the same compound?
A: The value was 47%.

Q: What about the “cortex Aβ40 reduction (plateau)” value (Aβ40 [4]) of the same compound?
A: Its value is “about 60%”.

Q: And the “cortex Aβ40 reduction” value (Aβ40, Aβ42 [5])?
A: Its value is 98%.

Q: And the “cortex Aβ42 reduction” value (Aβ40, Aβ42 [5])?
A: The value was 66%.

Q: What about the “cortex Aβ reduction” value (Aβ40, Aβ42 [5]) of the same compound?
A: Its value is 48%.

Q: And the “reduction of Aβ at partial inhibition dose” value (Aβ40, Aβ42 [5])?
A: The value was ~ 50%.

Q: And the “cortex Aβ40 lowering” value (Aβ40, Aβ42 [6])?
A: The value was 82%.

Q: And the “cortex Aβ42 lowering” value (Aβ40, Aβ42 [6])?
A: The value was 42%.

Q: And the “dose giving 50% lowering of cortical Aβ” value (Aβ40 [7]; nontransgenic mice, 11 days q.d. and 6 days b.i.d.)?
A: The value was “around 30 mg/kg”.

Q: And the “increase in Aβ in the cortex” value (Aβ40 [7]; nontransgenic mice, 11 days q.d. and 6 days b.i.d., 3-100 mg/kg)?
A: The value was “no evidence of an increase”.

Q: What about the “continuous inhibition of Aβ with q.d. dosing” value (Aβ40 [7]; q.d. dosing (100 mg/kg), without Notch-related side effects) of the same compound?
A: The value was over 80%.

Q: For O=S(=O)(c1ccc(Cl)cc1)N1[C@@H]2CCC[C@H]1c1cn[nH]c1C2 [ELN 475516], which “lowering of Aβ” value ([8]; sustained but incomplete) is on record?
A: Its value is ~ 74%.

Q: And the “Notch-related toxicity (thymus weight, goblet cell hyperplasia in the ileum)” value [8]?
A: The value was “no evidence of Notch-related toxicity”.
